Test systems include HCT-15 colon; OVCAR-4 ovarian; OVCAR-5 ovarian; OVCAR-8 ovarian; SK-MEL-5 melanoma; SK-OV-3 ovarian; TK-10 renal; BT-549 breast.
Holding throughout (assay): growth of human tumour cells (NCI), 48 h

Among the data in PubChem BioAssay (NCI) are TGI and GI50 values, retold here.

Each structure is given as a SMILES string. Where “and” joins values, the source holds several entries; their conditions need not be identical. Identical values can stand only once.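 Results reflect a 48-hour exposure of cells in 96-well plates to compound at five concentrations. Abbreviation: GI50, concentration required for 50% inhibition of growth. The concentration for full growth arrest is given as TGI.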

Consider `CC1(C)CC2=NOS3=C2C(=NO3)C1c1ccccn1` (stereo unspecified), for which the TGI was above 100 µM in the test with HCT-15 colon; above 100 µM in the test on OVCAR-4 ovarian; above 100 µM with OVCAR-5 ovarian; above 100 µM with OVCAR-8 ovarian; 34.8 µM in the test with SK-MEL-5 melanoma; above 100 µM with SK-OV-3 ovarian. The molecule also showed a TGI in the test on TK-10 renal above 100 µM.
`CCCN1C(=O)/C(=C/c2ccc(O)cc2)SC1=Nc1ccccc1`: the GI50 with HCT-15 colon was 16.9 µM; in the test with OVCAR-4 ovarian it was 25.2 µM; in the test on OVCAR-5 ovarian, 21.7 µM; with OVCAR-8 ovarian it was 25.8 µM; in the test with SK-MEL-5 melanoma, 22.8 µM; with SK-OV-3 ovarian it was 18 µM. The GI50 with TK-10 renal is 18.6 µM. The TGI in the test with HCT-15 colon came to 37.5 µM; with OVCAR-4 ovarian, 49.5 µM; with OVCAR-5 ovarian it was 44.2 µM; in the test on OVCAR-8 ovarian, 68.8 µM; in the test on SK-MEL-5 melanoma it was 46 µM; in the test on SK-OV-3 ovarian, 40.8 µM. For the same molecule, the TGI in the test with TK-10 renal stood at 38.5 µM.
As to `N#C/C(=C\c1ccc(Cl)cc1)n1nnc2cc(F)c(F)cc21`, the GI50 was 1.74 µM with BT-549 breast; 1.42 µM with HCT-15 colon; 1.59 µM with OVCAR-4 ovarian; 1.9 µM in the test on OVCAR-5 ovarian; 3.27 µM in the test on OVCAR-8 ovarian; 1.62 µM in the test with SK-MEL-5 melanoma. Also, the TGI was 3.43 µM in the test with BT-549 breast; 3.55 µM in the test with HCT-15 colon; 3.48 µM with OVCAR-4 ovarian; 3.81 µM in the test with OVCAR-5 ovarian; above 100 µM with OVCAR-8 ovarian; 3.04 µM in the test with SK-MEL-5 melanoma.
With `C[C@]12CC[C@H]3[C@@H](CC=C4C[C@@H](O)CC[C@@]43C)[C@@H]1C/C(=C\c1cccc(OCCCn3ccnc3)c1)[C@@H]2O`, the GI50 in the test with HCT-15 colon was 10.2 µM; in the test with OVCAR-4 ovarian it was 12.8 µM; in the test on OVCAR-5 ovarian it was 17.2 µM; in the test with OVCAR-8 ovarian, 14.4 µM; in the test on SK-MEL-5 melanoma it was 6.26 µM; in the test on SK-OV-3 ovarian it was 16.2 µM. Further, the GI50 with TK-10 renal was 16.6 µM. The TGI is 38.9 µM in the test on HCT-15 colon; 32.7 µM in the test with OVCAR-4 ovarian; 32.9 µM in the test on OVCAR-5 ovarian; 43.1 µM with OVCAR-8 ovarian; 20.4 µM with SK-MEL-5 melanoma; 32.7 µM in the test with SK-OV-3 ovarian. For the same molecule, the TGI with TK-10 renal is 31.3 µM.
As for `CCCCCCCCO/N=C\c1c2c(O)c3c(O)c(C)c4c(c3c1O)C(=O)C(C)(O/C=C\C(OC)C(C)C(OC(C)=O)C(C)C(O)C(C)C(O)C(C)/C=C\C=C(\C)C(=O)N2)O4` (stereo unspecified), the GI50 in the test with HCT-15 colon is 1.79 µM; in the test with OVCAR-4 ovarian it was 1.61 µM; in the test with OVCAR-5 ovarian it was 2.12 µM; in the test with OVCAR-8 ovarian, 1.75 µM; in the test on SK-MEL-5 melanoma, 0.948 µM; with SK-OV-3 ovarian, 1.86 µM. The TGI turned out to be 6.81 µM in the test with HCT-15 colon; 5.58 µM in the test on OVCAR-4 ovarian; 8.08 µM in the test on OVCAR-5 ovarian; 6.97 µM with OVCAR-8 ovarian; 2.09 µM with SK-MEL-5 melanoma; 6.68 µM with SK-OV-3 ovarian.
`COc1cc(/C=C2\C[C@H]3[C@@H]4CC=C5C[C@@H](OC(C)=O)CC[C@]5(C)[C@H]4CC[C@]3(C)[C@H]2OC(C)=O)ccc1OCCCn1ccnc1`: the GI50 in the test on BT-549 breast was 5.68 µM; in the test on HCT-15 colon, 7.5 µM; with OVCAR-5 ovarian, 12.7 µM; with OVCAR-8 ovarian, 10.7 µM; with SK-MEL-5 melanoma it was 7.25 µM; with TK-10 renal, 3.73 µM. Further, the TGI is 13.6 µM with BT-549 breast; 16 µM in the test with HCT-15 colon; 33.6 µM with OVCAR-5 ovarian; 24.7 µM in the test on OVCAR-8 ovarian; 15.4 µM in the test on SK-MEL-5 melanoma; 13.3 µM in the test with TK-10 renal.
For the molecule `Cc1cccc(Oc2ccc(Nc3ncnc4ccc(NC(=O)CN5CCN(C)CC5)cc34)cc2Cl)c1`, the GI50 in the test on BT-549 breast is 1.45 µM; in the test with HCT-15 colon, 1.35 µM; in the test on OVCAR-4 ovarian it was 1.72 µM; with OVCAR-5 ovarian, 1.66 µM; in the test on OVCAR-8 ovarian, 2.11 µM; in the test on SK-MEL-5 melanoma, 1.64 µM. The GI50 in the test with TK-10 renal was 0.701 µM. Also, the TGI in the test with BT-549 breast stood at 2.81 µM; with HCT-15 colon it was 2.76 µM; in the test with OVCAR-4 ovarian it was 4.3 µM; with OVCAR-5 ovarian it was 3.2 µM; in the test with OVCAR-8 ovarian, 5.68 µM; in the test on SK-MEL-5 melanoma it was 3.03 µM. The molecule also displayed a TGI with TK-10 renal of 2.24 µM.
Consider `N#Cc1c(N)nc(N2CCOCC2)c(C#N)c1-c1cccc(O)c1`, for which the GI50 is 89.9 µM in the test with BT-549 breast; 67 µM in the test on HCT-15 colon; 26.5 µM with OVCAR-4 ovarian; above 100 µM with OVCAR-5 ovarian; above 100 µM in the test with OVCAR-8 ovarian; above 100 µM in the test on SK-MEL-5 melanoma. Further, in the test with SK-OV-3 ovarian, the GI50 is 70.9 µM. For the same molecule, the TGI in the test with BT-549 breast, in the test with HCT-15 colon, in the test on OVCAR-4 ovarian, in the test on OVCAR-5 ovarian, in the test on OVCAR-8 ovarian and in the test on SK-MEL-5 melanoma was above 100 µM throughout. The TGI with SK-OV-3 ovarian is above 100 µM.
For the molecule `COc1ccc2c(c1)/C(=C/c1c(-c3ccc(C)cc3)nc3sc(C)cn13)C(=O)N2`, the GI50 was 14.2 µM in the test on OVCAR-4 ovarian; 16.6 µM with OVCAR-5 ovarian; 12.4 µM in the test with OVCAR-8 ovarian; 11.9 µM in the test on SK-MEL-5 melanoma; 23.9 µM in the test on SK-OV-3 ovarian; 7.93 µM with TK-10 renal. Besides, the TGI in the test on OVCAR-4 ovarian was above 100 µM; with OVCAR-5 ovarian, 87.3 µM; in the test with OVCAR-8 ovarian it was above 100 µM; in the test on SK-MEL-5 melanoma, 30.5 µM; in the test with SK-OV-3 ovarian, above 100 µM; in the test on TK-10 renal, above 100 µM.
On to `Fc1ccc(Nc2ccc3cc(OCCCN4CCOCC4)ccc3n2)cc1F`, for which the GI50 was 7.28 µM in the test on BT-549 breast; 2.55 µM in the test on HCT-15 colon; 4.14 µM in the test on OVCAR-4 ovarian; 3.02 µM in the test on OVCAR-5 ovarian; 5.51 µM in the test with OVCAR-8 ovarian; 1.75 µM in the test with SK-MEL-5 melanoma. In the test on SK-OV-3 ovarian, the GI50 was 8.24 µM. For the same molecule, the TGI in the test on BT-549 breast was 52.1 µM; with HCT-15 colon it was 10.4 µM; in the test on OVCAR-4 ovarian, above 100 µM; in the test on OVCAR-5 ovarian, above 100 µM; in the test with OVCAR-8 ovarian, above 100 µM; with SK-MEL-5 melanoma, 3.49 µM. In the test with SK-OV-3 ovarian, the TGI was above 100 µM.
For the molecule `Cc1cc2c(cc1C)[n+](=O)c(C(=O)c1cccs1)c(C(F)(F)F)n2[O-]`, the GI50 with BT-549 breast is 0.565 µM; with HCT-15 colon, 5.27 µM and 3.56 µM; in the test with OVCAR-4 ovarian, 6.44 µM and 3.56 µM; with OVCAR-5 ovarian it was 16.7 µM and 4.47 µM; in the test on OVCAR-8 ovarian, 1.67 µM and 2.02 µM; in the test on SK-MEL-5 melanoma it was 0.724 µM and 1.3 µM. For the same molecule, the GI50 in the test with SK-OV-3 ovarian was 7.95 µM and 10.3 µM. Besides, the TGI in the test with BT-549 breast is 2.53 µM; with HCT-15 colon, 26 µM and 56 µM; with OVCAR-4 ovarian, 50 µM and 10.7 µM; with OVCAR-5 ovarian it was 50 µM and 17.4 µM; in the test on OVCAR-8 ovarian, 50 µM and 6.61 µM; in the test on SK-MEL-5 melanoma, 1.78 µM and 2.8 µM. The TGI in the test with SK-OV-3 ovarian was 50 µM and 49 µM.
Take `COc1cc2c(cc1OCCCCCN1CCN(c3cc(=O)oc4c(C)c(OC)ccc34)CC1)N=C[C@@H]1CCCN1C2=O`: the GI50 with BT-549 breast was below 0.0119 µM; with HCT-15 colon, 0.552 µM; in the test with OVCAR-4 ovarian it was below 0.0178 µM; in the test with OVCAR-5 ovarian it was below 0.0123 µM; with OVCAR-8 ovarian, 0.018 µM; in the test on SK-OV-3 ovarian it was 0.0435 µM. Further, the GI50 with TK-10 renal was below 0.0129 µM. Further, the TGI stood at 0.155 µM with BT-549 breast; 4.42 µM in the test with HCT-15 colon; 0.189 µM with OVCAR-4 ovarian; 0.851 µM with OVCAR-5 ovarian; 5.15 µM with OVCAR-8 ovarian; 12.8 µM in the test on SK-OV-3 ovarian. In the test with TK-10 renal, this molecule displayed a TGI of 13.3 µM.
Regarding `O=C1NC(=O)[C@H]2C3C=CC([C@@H]12)[C@@H]1C(=O)NC(=O)[C@H]31`, the TGI in the test with BT-549 breast, in the test on HCT-15 colon, in the test with OVCAR-5 ovarian, in the test on OVCAR-8 ovarian, with SK-MEL-5 melanoma and with TK-10 renal was above 100 µM throughout.
For `CCOC(=O)c1ccc(C(O)CC(=O)OC(C)(C)C)[nH]1` (stereo unspecified), the GI50 in the test on HCT-15 colon is 34.4 µM; in the test with OVCAR-4 ovarian it was 38.1 µM; in the test on OVCAR-5 ovarian it was 32.3 µM; in the test on OVCAR-8 ovarian, 56.7 µM; with SK-MEL-5 melanoma, 27.3 µM; in the test on SK-OV-3 ovarian, 32.1 µM. The GI50 with TK-10 renal was 58.4 µM. For the same molecule, the TGI with HCT-15 colon was above 100 µM; with OVCAR-4 ovarian, above 100 µM; with OVCAR-5 ovarian, above 100 µM; with OVCAR-8 ovarian, above 100 µM; in the test with SK-MEL-5 melanoma, 89 µM; in the test on SK-OV-3 ovarian it was above 100 µM. Moreover, in the test on TK-10 renal, the TGI is above 100 µM.
Regarding `O=C(CCc1ccc(O)c(O)c1)c1ccc(O)c(O)c1O`, the TGI is 33 µM in the test with HCT-15 colon; 78.5 µM with OVCAR-4 ovarian; 49.4 µM in the test with OVCAR-5 ovarian; 74.2 µM in the test with OVCAR-8 ovarian; 36.3 µM in the test with SK-MEL-5 melanoma; above 100 µM in the test on SK-OV-3 ovarian. Moreover, the TGI in the test on TK-10 renal was 47.3 µM.
Take `N#C/C(=C\c1ccc(Br)cc1)n1nnc2cc(F)c(F)cc21`: the GI50 is 1.74 µM in the test on BT-549 breast; 1.34 µM in the test on HCT-15 colon; 1.95 µM in the test on OVCAR-4 ovarian; 1.85 µM in the test on OVCAR-5 ovarian; 1.69 µM in the test on OVCAR-8 ovarian; 1.76 µM with SK-MEL-5 melanoma. Moreover, in the test on TK-10 renal, the GI50 is 2.16 µM. Moreover, the TGI worked out at 4.51 µM in the test with BT-549 breast; 2.93 µM with HCT-15 colon; 6.09 µM with OVCAR-4 ovarian; 3.57 µM in the test with OVCAR-5 ovarian; 3.99 µM with OVCAR-8 ovarian; 3.17 µM in the test on SK-MEL-5 melanoma. In the test with TK-10 renal, this molecule returned a TGI of 5.56 µM.
With `CCOC(=O)CCc1c(C)c2ccc(O)cc2oc1=O`, the TGI in the test with BT-549 breast, with HCT-15 colon, with OVCAR-4 ovarian, in the test on OVCAR-5 ovarian, in the test with OVCAR-8 ovarian and in the test on SK-MEL-5 melanoma was above 100 µM throughout. The molecule further registered a TGI in the test with TK-10 renal above 100 µM.
